This passage reports ROS and glutathione results from patent publication US20160058759A1, “GLUTAMINASE INHIBITOR THERAPY” (Board of Regents, The University of Texas System, priority 2014, published 2016).

Experiment [1] relates to NRF2/KEAP1 mutant NSCLC cell lines. Nature of the experiment: ROS after GLS inhibitors. It counts as cell-based. The procedure: One day prior to the experiment, A549 cells were seeded in 6 well dishes (250,000 cells per well). The day of the experiment, cells were treated with 0.01% DMSO or 1 μM IACS-011393 for 24 hours. The following day, an allocated well was treated with hydrogen peroxide for 20-30 minutes as a positive control for ROS generation. All wells were then stained with CM-H2DCFDA (5 μM, Life Technologies) for 30 minutes at 37° C., washed with 1× PBS, harvested by trypsinization, and re-suspended in 400 μl phenol-free RPMI medium. Cells were strained through a […] cell strainer and analyzed using a flow cytometer (LSR Fortessa).

Experiment [2] shares this test system. Nature of the experiment: Glutathione level after GLS inhibitors. It counts as cell-based. The procedure:
Cells were allowed to settle and attach overnight. Cells plated in triplicate for each concentration and control examined. […] Cells were incubated with compound or relevant controls for 24 hours. On Day 2, 24 hours after treatment, cells were analyzed by GSH-Glo (PromegaV6912) per manufacturer's instructions. Plates were read in luminescence mode on a PheraStarFS plate reader. Duplicate wells were plated and then stained with crystal violet in order to correct for differences in cell growth as described below.

With `O=C(Cc1ccccc1)Nc1nnc(CCSCCc2nnc(NC(=O)Cc3ccccc3)s2)s1` [BPTES, N,N′-(5,5′-(2,2′-thiobis(ethane-2,1-diyl))bis(1,3,4-thiadiazole-5,2-diyl))bis(2-phenylacetamide)], in experiment [1], the ROS result was “increase in ROS”. The glutathione result in experiment [2] is “reduction in glutathione”.

In the case of `O=C(Cc1ccccn1)Nc1nnc(CCS(=O)(=O)CCc2nnc(NC(=O)Cc3ccccn3)s2)s1` [compound 13, N,N′-(5,5′-(2,2′-sulfonylbis(ethane-2,1-diyl))bis(1,3,4-thiadiazole-5,2-diyl))bis(2-(pyridin-2-yl)acetamide)], the ROS result in experiment [1] is recorded as “increase in ROS”. In addition, the glutathione entry in experiment [2] was “reduction in glutathione”.

Regarding `O=C(Cc1cccc(OC(F)(F)F)c1)Nc1ccc(CCCCc2nnc(NC(=O)Cc3ccccn3)s2)nn1` [CB-839, 2-(pyridin-2-yl)-N-{5-[4-(6-{2-[3-(trifluoromethoxy)phenyl]acetamido}pyridazin-3-yl)butyl]-1,3,4-thiadiazol-2-yl}acetamide], the ROS entry in experiment [1] was “increase in ROS”. Moreover, the glutathione entry in experiment [2] is listed as “reduction in glutathione”.
